Measured values taken from patent US10774080B2, “Pyrimidine compound as JAK kinase inhibitor” (THERAVANCE BIOPHARMA R&D IP, LLC, priority 2017, dated 2020).
“Also recorded” adds a separate entry of the source. Read-outs that look alike come from different tables or passages of the source.

Columns and labels:
JAK2 = molecular target: T1, JAK2 (Homo sapiens, UniProt O60674); assay: Biochemical JAK kinase assay (LanthaScreen), JAK2; settings: converted from pIC50 by Cheng-Prusoff; ATP at Km 3 μM; read-out: JAK 2 (pKi) (converted)
T1 construct: GST; purchased Life Technologies
T1 sequence (O60674 whole entry): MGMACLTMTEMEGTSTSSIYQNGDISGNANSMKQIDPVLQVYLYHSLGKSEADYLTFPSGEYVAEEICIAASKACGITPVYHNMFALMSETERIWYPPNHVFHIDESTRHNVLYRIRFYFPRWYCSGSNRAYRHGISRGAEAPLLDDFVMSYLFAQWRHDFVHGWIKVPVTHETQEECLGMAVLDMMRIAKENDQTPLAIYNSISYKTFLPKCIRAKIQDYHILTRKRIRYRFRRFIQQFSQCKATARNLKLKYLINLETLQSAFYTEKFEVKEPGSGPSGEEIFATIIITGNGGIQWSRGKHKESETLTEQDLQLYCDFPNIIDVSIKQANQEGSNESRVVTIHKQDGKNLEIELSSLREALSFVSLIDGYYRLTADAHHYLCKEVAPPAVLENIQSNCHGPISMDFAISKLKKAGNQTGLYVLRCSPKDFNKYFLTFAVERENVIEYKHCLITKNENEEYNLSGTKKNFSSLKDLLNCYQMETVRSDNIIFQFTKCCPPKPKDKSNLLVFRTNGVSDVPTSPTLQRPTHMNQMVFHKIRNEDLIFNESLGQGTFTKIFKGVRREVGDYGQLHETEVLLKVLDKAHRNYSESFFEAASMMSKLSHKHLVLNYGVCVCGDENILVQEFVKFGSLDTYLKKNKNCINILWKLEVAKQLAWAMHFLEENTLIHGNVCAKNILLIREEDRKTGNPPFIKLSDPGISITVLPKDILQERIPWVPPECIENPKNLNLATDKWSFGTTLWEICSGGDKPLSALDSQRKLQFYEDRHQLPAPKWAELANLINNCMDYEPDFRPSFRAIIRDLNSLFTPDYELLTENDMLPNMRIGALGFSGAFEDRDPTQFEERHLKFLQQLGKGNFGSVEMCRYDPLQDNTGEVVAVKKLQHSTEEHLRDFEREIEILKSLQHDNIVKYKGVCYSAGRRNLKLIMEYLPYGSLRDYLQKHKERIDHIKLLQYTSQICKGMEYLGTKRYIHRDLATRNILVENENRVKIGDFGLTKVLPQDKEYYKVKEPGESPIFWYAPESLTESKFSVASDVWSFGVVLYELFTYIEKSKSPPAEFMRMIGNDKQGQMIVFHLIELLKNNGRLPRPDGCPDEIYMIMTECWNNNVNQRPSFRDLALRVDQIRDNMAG
Procedure: Assay 1: Biochemical JAK and Tyk2 Kinase Assays A panel of four LanthaScreen JAK biochemical assays (JAK1, 2, 3 and Tyk2) were carried in a common kinase reaction buffer (50 mM HEPES, pH 7.5, 0.01% Brij-35, 10 mM MgCl2, and 1 mM EGTA). Recombinant GST-tagged JAK enzymes and a GFP-tagged STAT1 peptide substrate were obtained from Life Technologies. Serially or discretely diluted compounds were pre-incubated with each of the four JAK enzymes and the substrate in white 384-well microplates (Corning) at ambient temperature for 1 h. ATP was subsequently added to initiate the kinase reactions in 10 μL total volume, with 1% DMSO. […] The plates were allowed to incubate at ambient temperature for 1 h before being read on the EnVision reader (Perkin Elmer). Emission ratio signals (520 nm/495 nm) were recorded and utilized to calculate the percent inhibition values based on DMSO and background controls. For dose-response analysis, percent inhibition data were plotted vs. compound concentrations, and IC50 values were determined from a 4-parameter robust fit model with the Prism software (GraphPad Software). Results were expressed as pIC50 (negative logarithm of IC50) and subsequently converted to pKi (negative logarithm of dissociation constant, Ki) using the Cheng-Prusoff equation.

[1] = Assay 5: rat pharmacokinetics; format: in vivo, male Sprague Dawley rats; settings: male, Sprague Dawley
Procedure: Assay 5: Rat Pharmacokinetics Assay The objective of this study was to assess the pharmacokinetics of compound (I) in plasma following single oral (PO, n=3) or intravenous (IV, n=2) administration to male Sprague Dawley rats. Three male Sprague Dawley rats were administered a single IV dose of compound (I) (1.0 mg/kg in 5% DMSO+20 mM Citrate buffer pH4) via a jugular vein catheter or a single PO dose of 5 mg/kg via oral gavage (5.0 mg/kg in 1% HPMC with 0.1% Tween80). At 0.25, 0.5, 1, 2, 4, 6, and 24 hours after dose administration blood samples were drawn via jugular vein catheter into EDTA tubes and maintained chilled on ice prior to centrifugation (12,000 rpm, 4 min, 4° C.). Aliquots of plasma were transferred to cluster tubes and stored frozen (−80° C.) prior to bioanalysis. Plasma samples were vortexed prior to transferring a 50 μL aliquot of sample to a 96-well plate and extracted with 200 μL acetonitrile containing an internal standard. Following extraction, samples were centrifuged for 10 min at 3700 RPM (2809×g). The supernatant was transferred to a new 96-well plate and then diluted in 0.2% formic acid in water (3-fold dilution). For all samples, 10 μL was injected onto a Waters Xbridge (C18 30×2.1 mm) column with a flow rate of 0.80 mL/min. Mobile phase A consisted of 0.2% formic acid in water and mobile phase B 0.2% formic acid in acetonitrile. Plasma levels of compound (I) were determined by LC-MS-MS analysis. Standard PK parameters were determined using Phoenix WinNonlin, (Certara Inc.).

[2] = tested on: TPA-induced increase in ear thickness; assay: Assay 10: in vivo TPA-induced acute dermatitis model in mice; parameters: species or system female Balb/c mice
Procedure: Assay 10: In Vivo TPA-Induced Acute Dermatitis Model in Mice
The objective of this assay is to assess the anti-inflammatory effect of compound (I), in a model of acute dermatitis being studied for cutaneous inflammatory conditions such as atopic dermatitis (Dong et al., J Pharmacol Exp Ther, 2013, 344, 436-446).
Topical dermal application of phorbol ester TPA in mice causes an inflammatory response that is characterized by edema and neutrophil influx at the early phase (2-24 h) and by epidermal cell proliferation at the later phase (24-48 h) (Griffiths et al., Agents and Actions, 1988, 25, 344-351). In this model, female Balb/c mice were topically administered with 20 μl/ear of either vehicle or TPA (2.5 μg). For the solution formulation, vehicle (1:7 DMSO:Acetone) or test compound was topically applied 30 min before and 15 min after TPA administration. For the ointment formulation, vehicle or compound (I) (0.5% strength) was applied 30 min before TPA. The degree of inflammation was assessed as the change in ear thickness at 6 hours after TPA application.

Compound: CCS(=O)(=O)N1[C@@H]2CCC[C@H]1C[C@H](N(C)c1nc(CO)c(F)c(Nc3cc(C)[nH]n3)n1)C2 [Compound (I), (2-(((1R,3s,5S)-9-(ethylsulfonyl)-9-azabicyclo[3.3.1]nonan-3-yl)(methyl)amino)-5-fluoro-6-((5-methyl-1H-pyrazol-3-yl)amino)pyrimidin-4-yl)methanol]
- Ki (JAK2): 0.0631 nM
- clearance ([1]; plasma, rat, IV (1 mg/kg)): 59 mL/min/kg
- Vd ([1]; plasma, rat, IV (1 mg/kg), read-out: Vdss): 1.1 L/kg
- bioavailability ([1]; plasma, rat, PO (5 mg/kg)): 7.7%
- AUC(0-t) ([1]; rat plasma, IV (1 mg/kg)): 291 ng·h/mL
- Cmax ([1]; rat plasma, IV (1 mg/kg)): 907 ng/mL
- half-life ([1]; rat plasma, IV (1 mg/kg), read-out: T½ (converted)): 1.34 h
- AUC(0-t) ([1]; rat plasma, PO (5 mg/kg)): 112 ng·h/mL
- Cmax ([1]; rat plasma, PO (5 mg/kg)): 77 ng/mL
- Inhibition of TPA-induced increase in ear thickness (mean % inh ± SEM (n)) [2]: 34.9%
- Inhibition of TPA-induced increase in ear thickness (mean % inh ± SEM (n)) ([2]; 30 μg/ear dosed as solution, 6 hours after TPA): 6.6% ± 1.1%
- Inhibition of TPA-induced increase in ear thickness (mean % inh ± SEM (n)) ([2]; 100 μg/ear dosed as solution, 6 hours after TPA): 2.4% ± 0.7%
- Inhibition of TPA-induced increase in ear thickness (mean % inh ± SEM (n)) ([2]; 300 μg/ear dosed as solution, 6 hours after TPA): 35.5% ± 3.1%
- Inhibition of TPA-induced increase in ear thickness (mean % inh ± SEM (n)) ([2]; 1000 μg/ear dosed as solution (highest dose), 6 hours after TPA): 54.8 ± 2.6%
- Inhibition of TPA-induced increase in ear thickness (mean % inh ± SEM (n)) ([2]; 0.5% Ointment, 20 μl/ear, 30 min before TPA, 6 hours after TPA): 34.9% ± 3.3% (12)
- effect on TPA-induced increase in ear thickness (in words) ([2]; dosed as a solution): dose-dependent effect; also recorded: dose dependent manner
